From patent US20230241243A1, “CARRIER PARTICLE-DRUG CONJUGATES, SELF-IMMOLATIVE LINKERS, AND USES THEREOF” (priority 2020, published 2023)

Legend:
[1] = Drug-release assay of nanoparticle-conjugated linker-payloads under cleavage conditions (Cat-B, redox-responsive or pH-sensitive cleaving study), RP-HPLC; type: in vitro ADME; settings: linker-payload conjugated to DBCO-functionalized silica nanoparticle, 37° C., 24 hours
How it was run: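 Azide linker-drugs were click-conjugated to DBCO-functionalized ultrasmall silica nanoparticles and incubated under cleavage conditions, e.g., Cat-B in 25 mM MES, 5 mM DTT, pH 5.0. Released versus non-released drug was quantified by C18 RP-HPLC peak area. Gradients were 0.01% TFA water/acetonitrile for protease/redox linkers and water/acetonitrile for pH-sensitive linkers.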

KB cell line = settings: read-out: IC50 in KB cell line (++++); FA ligands per particle 12-22; linker-drug conjugates per particle 17-25
Procedure: The in vitro cytotoxicity of the NDCs disclosed herein were tested in cancer cells. The cancer cells were cultured in folic acid-free medium (RPMI1640, ThermoFisher, GIBCO) for at least one week before the study. Cells were plated in opaque 96-well plates at a density of 3×10^3 cells per well (total of […]) and allowed to attach overnight. The following day, cells were treated with NDC (FA-CDC) prepared using the linker-payload conjugate precursor compound 202 (Example 33), at a concentration range of 0-50 nM (0, 0.001, 0.005, 0.01, 0.05, 0.1, 0.5, 1, 5, 10, 50 nM) by adding […] of 10x stock FA-CDC Solution.
Cells were treated for a pre-defined exposure time (depending on the study design, e.g., 4-6 hours, or 7 days). In the case of short-exposure-time viability study, cancer cells in each wells were washed with […] PBS and refreshed with […] of cell medium. After washing, the plates were returned back to 37° C. incubator for 7 days before the viability assay. In the case of 7-day-exposure-time viability study, no additional washing step was performed. After 7 days, the cell viability was assessed using the CellTiter-Glo2.0 assay (Promega) according to manufacturer's instructions. Data for both viability and proliferation were plotted using Prism7 software (GraphPad).

| SMILES | % of Payload Release in 24 Hours Under Cleavage Conditions [1] | IC50 (KB cell line) [nM] |
| --- | --- | --- |
| CC[C@@]1(O)C(=O)OCc2c1cc1n(c2=O)Cc2c-1nc1cc(F)c(C)c3c1c2[C@@H](NC(=O)C(O)c1ccc(NC(=O)[C@H](CCCNC(N)=O)NC(=O)[C@@H](NC(=O)CCOCCOCCOCCOCCOCCOCCN=[N+]=[N-])C(C)C)cc1)CC3 (stereo partly drawn) [Example 18, 1-azido-N-((2S)-1-(((2S)-1-((4-(2-(((1S,9S)-9-ethyl-5-fluoro-9-hydroxy-4-methyl-10,13-dioxo-2,3,9,10,13,15-hexahydro-1H,12H-benzo[de]pyrano[3′,4′:6,7]indolizino[1,2-b]quinolin-1-yl)amino)-1-hydroxy-2-oxoethyl)phenyl)amino)-1-oxo-5-ureidopentan-2-yl)amino)-3-methyl-1-oxobutan-2-yl)-3,6,9,12,15,18-hexaoxahenicosan-21-amide] | +++ (‘+++’ indicates 51-75% release) | 17.5 |
| CCc1c2c(nc3ccc(OCC(=O)N/N=C(\C)c4ccc(OCCCCOCCOCCOCCOCCOCCOCCN=[N+]=[N-])cc4)cc13)-c1cc3c(c(=O)n1C2)COC(=O)[C@]3(O)CC [Example 75, (S,E)-N′-(1-(4-((1-azido-3,6,9,12,15,18-hexaoxadocosan-22-yl)oxy)phenyl)ethylidene)-2-((4,11-diethyl-4-hydroxy-3,14-dioxo-3,4,12,14-tetrahydro-1H-pyrano[3′,4′:6,7]indolizino[1,2-b]quinolin-9-yl)oxy)acetohydrazide] |  | 42.7 |
| CC[C@@]1(O)C(=O)OCc2c1cc1n(c2=O)Cc2c-1nc1cc(F)c(C)c3c1c2[C@@H](NC(=O)OCc1ccc(SSC(C)(C)CNC(=O)CCOCCOCCOCCOCCOCCOCCOCCOCCOCCN=[N+]=[N-])cc1)CC3 [Example 58, 4-((1-azido-33-methyl-30-oxo-3,6,9,12,15,18,21,24,27-nonaoxa-31-azatetratriacontan-33-yl)disulfanyl)benzyl ((1S,9S)-9-ethyl-5-fluoro-9-hydroxy-4-methyl-10,13-dioxo-2,3,9,10,13,15-hexahydro-1H,12H-benzo[de]pyrano[3′,4′:6,7]indolizino[1,2-b]quinolin-1-yl)carbamate] | ++++ (‘++++’ indicates 76-100% release) | 49.4 |
| CC[C@@]1(O)C(=O)OCc2c1cc1n(c2=O)Cc2c-1nc1cc(F)c(C)c3c1c2[C@@H](NC(=O)OCc1c(F)cc(NC(=O)[C@H](CCCNC(N)=O)NC(=O)[C@@H](NC(=O)CCOCCOCCOCCOCCOCCOCCOCCOCCOCCN=[N+]=[N-])C(C)C)cc1F)CC3 (single isomer, unassigned) [Example 27, 4-((32s,35s)-1-azido-32-isopropyl-30,33-dioxo-35-(3-ureidopropyl)-3,6,9,12,15,18,21,24,27-nonaoxa-31,34-diazahexatriacontan-36-amido)-2,6-difluorobenzyl ((1s,9s)-9-ethyl-5-fluoro-9-hydroxy-4-methyl-10,13-dioxo-2,3,9,10,13,15-hexahydro-1H,12H-benzo[de]pyrano[3′,4′:6,7]indolizino[1,2-b]quinolin-1-yl)carbamate] | ++++ (‘++++’ indicates 76-100% release) | 5.2 |
| CCc1c2c(nc3ccc(OCCCNC(=O)OCc4ccc(NC(=O)[C@H](CCCCN)NC(=O)[C@H](Cc5ccccc5)NC(=O)CCOCCOCCOCCOCCOCCOCCOCCOCCOCCN=[N+]=[N-])cc4)cc13)-c1cc3c(c(=O)n1C2)COC(=O)[C@]3(O)CC [Example 28, 4-((32S,35S)-35-(4-aminobutyl)-1-azido-32-benzyl-30,33-dioxo-3,6,9,12,15,18,21,24,27-nonaoxa-31,34-diazahexatriacontan-36-amido)benzyl (3-(((S)-4,11-diethyl-4-hydroxy-3,14-dioxo-3,4,12,14-tetrahydro-1H-pyrano[3′,4′:6,7]indolizino[1,2-b]quinolin-9-yl)oxy)propyl)carbamate] | +++ (‘+++’ indicates 51-75% release) | 72.2 |
